One assay deals with T1, human EDG-2 (Homo sapiens, UniProt Q92633).
T1 construct: cDNA of the cloned human EDG-2 was introduced into pEFneo, which is an animal expression vector; expressed in transfected cells; host or cells: HepG2
Kind of assay: Inhibitory activity on LPA-induced elevation of intracellular Ca2+ level. Format: cell-based. The following applies: 50% inhibition of elevation of intracellular Ca2+ level by LPA, human EDG-2/HepG2 cells, fura-2. The text has this:
(§1) The human EDG-2 expression plasmid was introduced into HepG2 cells by electroporation. After the introduction, culturing was continued while exchanging selective media every 3 to 4 days, thereby obtaining an expressed colony. Regarding these cells, Ca-influx and cell-proliferation by LPA, level of [^3H] LPA binding and the like were inspected to select a cell line which highly expresses human EDG-2 (human EDG-2/HepG2).
Human EDG-2/HepG2 cells were washed and then suspended in 0.1% BSA (bovine serum albumin)-containing HEPES buffer. A fluorescent indicator, fura-2/AM (Wako Pure Chemical Industries, Ltd.), was added, and the mixture was shaken at room temperature for 45 minutes so that the indicator is included in the cell. Cells were washed again and then suspended in 0.1% BSA-containing HEPES buffer, and intracellular Ca^2+ level was assayed using FDSS2000 (Hamamatsu Photonics). […] Each test compound was added to the cell suspension followed by the addition of LPA, thereby examining the inhibitory activity of the test compound on the function of LPA for elevating the intracellular Ca level. […] The lower the IC50 value, the higher the antagonistic activity on the LPA receptor.

Another assay concerns Human EDG-2/HepG2 cells. Briefly: Inhibitory activity on LPA-accelerated [3H] thymidine incorporation (cell proliferation). To be noted: 50% inhibition of LPA-induced increase of [3H] thymidine incorporation. The assay is classed as cell-based.
Source text: as §1
Human EDG-2/HepG2 cells suspended in 10% bovine serum-containing DMEM (Dulbecco's modified eagle medium) were plated on a 96-well plate and, on the next day, the medium was exchanged with serum-free DMEM. 24 hours later, the medium was exchanged with DMEM containing LPA or DMEM containing no LPA, cells were cultured for further 16 hours, and [^3H] thymidine was then added. After culturing for 8 hours subsequent to the addition of [^3H] thymidine, cells were washed with PBS (phosphate-buffered saline), and the amount of [^3H] thymidine incorporated into the cells were assayed by Betaplate filter counter system (Amersham Pharmacia Biotech). The difference between the amount of [^3H] thymidine incorporated in the LPA-added well and the amount of [^3H] thymidine incorporated in the well containing no LPA represents the amount of [^3H] thymidine incorporation accelerated by LPA. […] The test compounds were added immediately before the LPA addition.

SMILES strings stand for the structures. pIC50: −log10 of the molar value.

T1 sequence (Q92633 whole entry): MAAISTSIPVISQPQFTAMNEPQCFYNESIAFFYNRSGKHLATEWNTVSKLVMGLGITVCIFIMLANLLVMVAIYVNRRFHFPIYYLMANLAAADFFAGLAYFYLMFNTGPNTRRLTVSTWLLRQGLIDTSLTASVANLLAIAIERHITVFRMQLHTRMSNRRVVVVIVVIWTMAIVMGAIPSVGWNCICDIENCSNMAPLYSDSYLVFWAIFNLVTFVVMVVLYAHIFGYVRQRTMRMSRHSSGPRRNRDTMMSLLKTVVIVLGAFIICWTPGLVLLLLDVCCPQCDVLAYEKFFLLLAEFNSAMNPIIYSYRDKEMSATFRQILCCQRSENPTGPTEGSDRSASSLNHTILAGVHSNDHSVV

As for `Cc1onc(-c2ccccc2)c1NC(=O)OC(C)c1ccccc1Cl` (stereo not shown) [Compound 4, 1-(2-Chlorophenyl)ethyl N-(5-methyl-3-phenyl-4-isoxazolyl)carbamate], the figures for the pIC50 against human EDG-2 and with Human EDG-2/HepG2 cells were 5.52 and 6.00, respectively.

For the molecule `Cc1onc(-c2ccccc2F)c1NC(=O)OC(C)c1ccccc1Cl` (stereo not shown) [Compound 20, 1-(2-Chlorophenyl)ethyl N-[3-(2-fluorophenyl)-5-methyl-4-isoxazolyl]carbamate], the negative-log IC50 (pIC50) (commonly the IC50 on a negative log10 scale, so that one unit is a factor of ten) against human EDG-2 is 5.52; in the assay with Human EDG-2/HepG2 cells it was 6.00.

For the molecule `Cc1noc(-c2ccco2)c1NC(=O)OC(C)c1ccccc1Cl` (stereo not shown) [Compound 32, 1-(2-Chlorophenyl)ethyl N-[5-(2-furyl)-3-methyl-4-isoxazolyl]carbamate], the results for the pIC50 against human EDG-2 and in the assay with Human EDG-2/HepG2 cells were 5.52 and 6.00, respectively.

`Cc1noc(-c2ccc(C#N)cc2)c1NC(=O)OC(C)c1ccccc1Cl` (stereo not shown) [Compound 47, 1-(2-Chlorophenyl)ethyl N-[5-(4-cyanophenyl)-3-methyl-4-isoxazolyl]carbamate]: the negative-log IC50 (pIC50) is 6.00 against human EDG-2 and 6.52 in the assay on Human EDG-2/HepG2 cells.

For the molecule `Cc1noc(-c2ccncc2)c1NC(=O)OC(C)c1ccccc1Cl` (stereo not shown) [Compound 62, 1-(2-Chlorophenyl)ethyl N-[3-methyl-5-(4-pyridyl)-4-isoxazolyl]carbamate], the pIC50 against human EDG-2 and in the assay with Human EDG-2/HepG2 cells was 5.52 in each case.

Turning to `Cc1ccsc1-c1onc(C)c1NC(=O)OC(C)c1ccccc1Cl` (stereo not shown) [Compound 67, 1-(2-Chlorophenyl)ethyl N-[3-methyl-5-(3-methyl-2-thienyl)-4-isoxazolyl]carbamate], the figures for the negative logarithm of the IC50 (pIC50) at human EDG-2 and in the assay on Human EDG-2/HepG2 cells were 5.52 and 6.00, respectively.

In the case of `Cc1noc(-c2ccnc(Cl)c2)c1NC(=O)OC(C)c1ccccc1Cl` (stereo not shown) [Compound 71, 1-(2-Chlorophenyl)ethyl N-[5-(2-chloro-4-pyridyl)-3-methyl-4-isoxazolyl]carbamate], the pIC50 was 5.52 on human EDG-2 and 6.00 in the assay with Human EDG-2/HepG2 cells.

As for `Cc1onc(-c2ccccc2)c1NC(=O)OC(c1ccccc1)C(F)(F)F` (stereo not shown) [Compound 80, 2,2,2-Trifluoro-1-phenylethyl N-(5-methyl-3-phenyl-4-isoxazolyl)carbamate], the pIC50 against human EDG-2 is 5.52 to 6.00.

`C=CC(OC(=O)Nc1c(-c2ccccc2)noc1C)c1ccccc1` (stereo not shown) [Compound 81, 1-Phenylallyl N-(5-methyl-3-phenyl-4-isoxazolyl)carbamate] had a pIC50 against human EDG-2 of 4.00 to 4.52.

The molecule `Cc1noc(-c2ccc(COCc3ccc(F)cc3)cc2)c1NC(=O)OC(C)c1ccccc1Cl` (stereo not shown) [Compound 82, 1-(2-Chlorophenyl)ethyl N-[5-(4-[[(4-fluorobenzyl)oxy]methyl]phenyl)-3-methyl-4-isoxazolyl]carbamate] showed a pIC50 against human EDG-2 of 4.52 to 5.00.

On to `Cc1noc(-c2ccc(COCc3c(F)cccc3F)cc2)c1NC(=O)OC(C)c1ccccc1Cl` (stereo not shown) [Compound 83, 1-(2-Chlorophenyl)ethyl N-[5-(4-[[(2,6-difluorobenzyl)oxy]methyl]phenyl)-3-methyl-4-isoxazolyl]carbamate], for which, at human EDG-2, the pIC50 was 5.00.

In turn, `Cc1noc(-c2ccc(COCc3ccco3)cc2)c1NC(=O)OC(C)c1ccccc1Cl` (stereo not shown) [Compound 84, 1-(2-Chlorophenyl)ethyl N-(5-[4-[(2-furylmethoxy)methyl]phenyl]-3-methyl-4-isoxazolyl)carbamate] gave a pIC50 at human EDG-2 of 5.00 to 5.52.

In turn, `Cc1noc(-c2ccc(COCc3ccoc3)cc2)c1NC(=O)OC(C)c1ccccc1Cl` (stereo not shown) [Compound 85, 1-(2-Chlorophenyl)ethyl N-(5-[4-[(3-furylmethoxy)methyl]phenyl]-3-methyl-4-isoxazolyl)carbamate] had a pIC50 at human EDG-2 of 5.00 to 5.52.

In turn, `Cc1noc(-c2ccc(C#N)cc2)c1NC(=O)OC(c1ccccc1)C(F)(F)F` (stereo not shown) [Compound 86, 2,2,2-Trifluoro-1-phenylethyl N-[5-(4-cyanophenyl)-3-methyl-4-isoxazolyl]carbamate] gave a pIC50 against human EDG-2 of 5.52 to 6.00.

As to `COCc1ccc(-c2onc(C)c2NC(=O)OC(C)c2ccccc2Cl)cc1` (stereo not shown) [Compound 87, 1-(2-Chlorophenyl)ethyl N-[5-[4-(methoxymethyl)phenyl]-3-methyl-4-isoxazolyl]carbamate], the negative logarithm of the IC50 (pIC50) on human EDG-2 is 5.52.

In turn, `Cc1noc(-c2ccc(CN3CCOCC3)cc2)c1NC(=O)OC(C)c1ccccc1Cl` (stereo not shown) [Compound 88, 1-(2-Chlorophenyl)ethyl N-[3-methyl-5-[4-(morpholinomethyl)phenyl]-4-isoxazolyl]carbamate] showed a pIC50 on human EDG-2 of 5.00 to 5.52.

On to `Cc1noc(-c2ccc(CN3CC(C)OC(C)C3)cc2)c1NC(=O)OC(C)c1ccccc1Cl` (stereo not shown) [Compound 89, 1-(2-Chlorophenyl)ethyl N-(5-[4-[(2,6-dimethylmorpholino)methyl]phenyl]-3-methyl-4-isoxazolyl)carbamate], for which the pIC50 on human EDG-2 is 4.52 to 5.00.

Take `Cc1noc(-c2ccc(CNCCc3ccccn3)cc2)c1NC(=O)OC(C)c1ccccc1Cl` (stereo not shown) [Compound 90, 1-(2-Chlorophenyl)ethyl N-(3-methyl-5-[4-[([2-(2-pyridyl)ethyl]amino)methyl]phenyl]-4-isoxazolyl)carbamate]: the pIC50 against human EDG-2 was 5.00.

`Cc1noc(-c2ccc(CNCc3ccco3)cc2)c1NC(=O)OC(C)c1ccccc1Cl` (stereo not shown) [Compound 93, 1-(2-Chlorophenyl)ethyl N-[5-(4-[[(2-furylmethyl)amino]methyl]phenyl)-3-methyl-4-isoxazolyl]carbamate] showed a pIC50 against human EDG-2 of 5.00 to 5.52.

`Cc1ccccc1CCOC(=O)Nc1c(-c2ccccc2)noc1C` [Compound 95, 2-Methylphenethyl N-(5-methyl-3-phenyl-4-isoxazolyl)carbamate]: the negative logarithm of the IC50 (pIC50) against human EDG-2 is 4.00 to 4.52.

In the case of `Cc1onc(-c2ccccc2)c1NC(=O)OCCc1ccccc1` [Compound 96, Phenethyl N-(5-methyl-3-phenyl-4-isoxazolyl)carbamate], on human EDG-2, the pIC50 is 4.00 to 4.52.

As for `Cc1onc(-c2ccccc2)c1NC(=O)OC1CCc2ccccc21` (stereo not shown) [Compound 97, 2,3-Dihydro-1H-1-indenyl N-(5-methyl-3-phenyl-4-isoxazolyl)carbamate], at human EDG-2, the pIC50 was 4.00 to 4.52.

Molecule `Cc1onc(-c2ccccc2)c1NC(=O)OC1CCc2ccccc2C1` (stereo not shown) [Compound 98, 1,2,3,4-Tetrahydro-2-naphthalenyl N-(5-methyl-3-phenyl-4-isoxazolyl)carbamate] had a pIC50 against human EDG-2 of 4.00 to 4.52.

On to `CCCCCOC(=O)Nc1c(-c2ccccc2)noc1C` [Compound 99, Pentyl N-(5-methyl-3-phenyl-4-isoxazolyl)carbamate], for which the pIC50 on human EDG-2 was 4.00 to 4.52.

In the case of `Cc1onc(-c2ccccc2)c1NC(=O)OCCC(C)C` [Compound 100, Isopentyl N-(5-methyl-3-phenyl-4-isoxazolyl)carbamate], at human EDG-2, the pIC50 was 4.00 to 4.52.

Take `CCCCC(C)OC(=O)Nc1c(-c2ccccc2)noc1C` (stereo not shown) [Compound 101, 1-Methylpentyl N-(5-methyl-3-phenyl-4-isoxazolyl)carbamate]: on human EDG-2, the pIC50 is 4.00 to 4.52.

At human EDG-2, `C=CCCCOC(=O)Nc1c(-c2ccccc2)noc1C` [Compound 102, 4-Pentenyl N-(5-methyl-3-phenyl-4-isoxazolyl)carbamate] gave a pIC50 of 4.00 to 4.52.

For the molecule `Cc1noc(-c2ccc(CNCCc3ccccn3)cc2)c1NC(=O)OC(C)c1ccccc1Cl` (stereo not shown) [Compound 103], the figures for the pIC50 against human EDG-2 and in the assay with Human EDG-2/HepG2 cells were 5.00 and 6.52, respectively.

In the case of `Cc1noc(-c2ccc(CNCC3CCCO3)cc2)c1NC(=O)OC(C)c1ccccc1Cl` (stereo not shown) [Compound 104, 1-(2-Chlorophenyl)ethyl N-[3-methyl-5-(4-{[(tetrahydro-2-furanylmethyl)amino]-methyl}phenyl)-4-isoxazolyl]carbamate], the results for the negative logarithm of the IC50 (pIC50) against human EDG-2 and with Human EDG-2/HepG2 cells were 4.52 to 5.00 and 5.52, respectively.

In the case of `Cc1noc(-c2ccc(CNCc3ccccn3)cc2)c1NC(=O)OC(C)c1ccccc1Cl` (stereo not shown) [Compound 105, 1-(2-Chlorophenyl)ethyl N-[3-methyl-5-(4-{[(2-pyridylmethyl)amino]methyl}-phenyl)-4-isoxazolyl]carbamate], the negative logarithm of the IC50 (pIC50) is 4.52 to 5.00 against human EDG-2 and 6.00 in the assay with Human EDG-2/HepG2 cells.

On to `Cc1noc(-c2cccc(CSCCO)c2)c1NC(=O)OC(C)c1ccccc1Cl` (stereo not shown) [Compound 131, 1-(2-Chlorophenyl)ethyl N-[5-(3-{[(2-hydroxyethyl)sulfanyl]methyl}phenyl)-3-methyl-4-isoxazolyl]carbamate], for which the pIC50 on human EDG-2 is 5.52.

In turn, `Cc1noc(-c2ccc(CCl)cc2)c1NC(=O)OC(C)c1ccccc1F` (stereo not shown) [Compound 155, 1-(2-Fluorophenyl)ethyl N-{5-[4-(chloromethyl)phenyl]-3-methyl-4-isoxazolyl}carbamate] had a pIC50 on human EDG-2 of 5.00 to 5.52.

Turning to `CCc1noc(-c2ccc(CCl)cc2)c1NC(=O)OC(C)c1ccccc1F` (stereo not shown) [Compound 160, 1-(2-Fluorophenyl)ethyl N-{5-[4-(chloromethyl)phenyl]-3-ethyl-4-isoxazolyl}carbamate], the pIC50 against human EDG-2 is 5.00 to 5.52.

For the origin of these results see patent US6964975B2, “Isoxazole and thiazole compounds and use thereof as medicine” (Kirin Beer Kabushiki Kaisha, priority 2000, dated 2005).
